Assay results published in publication PMC9794710, “Introduction of benzyloxy pharmacophore into aryl/heteroaryl chalcone motifs as a new class of monoamine oxidase B inhibitors” (Scientific Reports, 2022).
Like-named read-outs stand apart in the source and are kept apart here.

Tests used:
hMAO-A = biological target: T1, hMAO-A (Homo sapiens, UniProt P21397); test: hMAO-A inhibitory activity assay (recombinant enzyme, kynuramine substrate); assay type: biochemical; settings: kynuramine 0.06 mM; for remaining activity at 10 µM: 10 µM compound, read-out: Residual activity at 10 µM (%) hMAO-A
T1 construct: purchased Sigma-Aldrich (St. Louis, MO, USA)
T1 sequence (P21397 1-527): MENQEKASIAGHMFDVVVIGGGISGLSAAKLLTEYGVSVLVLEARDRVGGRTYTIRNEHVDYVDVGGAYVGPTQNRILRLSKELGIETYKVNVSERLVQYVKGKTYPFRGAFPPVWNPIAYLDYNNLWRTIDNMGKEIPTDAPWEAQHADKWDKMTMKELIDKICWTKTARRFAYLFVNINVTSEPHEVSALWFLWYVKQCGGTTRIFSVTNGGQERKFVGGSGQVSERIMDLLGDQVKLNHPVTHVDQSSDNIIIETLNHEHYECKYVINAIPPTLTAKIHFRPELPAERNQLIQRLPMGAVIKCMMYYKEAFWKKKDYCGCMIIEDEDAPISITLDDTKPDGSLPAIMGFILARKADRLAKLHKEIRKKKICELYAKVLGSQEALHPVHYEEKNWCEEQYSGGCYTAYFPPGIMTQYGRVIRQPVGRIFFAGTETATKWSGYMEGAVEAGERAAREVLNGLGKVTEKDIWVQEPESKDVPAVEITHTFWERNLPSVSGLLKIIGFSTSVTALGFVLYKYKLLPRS

hMAO-B [1] = biological target: T2, hMAO-B (Homo sapiens, UniProt P27338); test: hMAO-B inhibitory activity assay (recombinant enzyme, benzylamine substrate); settings: for SI (selectivity index for hMAO-B as compared with hMAO-A): IC50 of hMAO-A/IC50 of hMAO-B; for remaining activity at 10 µM: read-out: Residual activity at 10 µM (%) hMAO-B;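 on all read-outs here: benzylamine used at 0.3 mM as hMAO-B substrate, compounds first screened at 10 µM, hMAO-A assayed with 0.06 mM kynuramine for the selectivity ratio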
T2 sequence (P27338 1-520): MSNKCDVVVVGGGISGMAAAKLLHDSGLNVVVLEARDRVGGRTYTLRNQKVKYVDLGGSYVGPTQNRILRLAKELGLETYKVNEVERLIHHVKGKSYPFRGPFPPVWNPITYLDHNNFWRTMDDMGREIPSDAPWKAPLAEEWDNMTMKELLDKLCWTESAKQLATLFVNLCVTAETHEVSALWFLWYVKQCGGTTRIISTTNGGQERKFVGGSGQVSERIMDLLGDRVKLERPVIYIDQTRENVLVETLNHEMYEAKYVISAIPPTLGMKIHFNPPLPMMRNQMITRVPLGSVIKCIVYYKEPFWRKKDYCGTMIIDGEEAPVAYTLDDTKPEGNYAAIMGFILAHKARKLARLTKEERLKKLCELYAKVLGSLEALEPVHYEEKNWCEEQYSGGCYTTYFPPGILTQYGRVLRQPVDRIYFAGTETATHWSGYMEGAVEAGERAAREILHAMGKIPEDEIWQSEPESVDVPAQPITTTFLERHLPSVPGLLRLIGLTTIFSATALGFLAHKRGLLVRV

hMAO-B [2] = biological target: T2, hMAO-B
[3] = Parallel artificial membrane permeation assay (PAMPA) for BBB permeation; assay type: in vitro ADME; settings: for Papp: pH 7.4, read-out: Experimental Pe
hMAO-B [4] = biological target: T2, hMAO-B; test: Enzyme kinetic study of hMAO-B inhibition (Lineweaver–Burk and secondary plots); assay type: biochemical; set-up: purchased Sigma-Aldrich (St. Louis, MO, USA); settings: for Type of hMAO-B inhibition: Lineweaver–Burk plots; for Ki: secondary plots, five substrate and three inhibitor concentrations
hMAO-B [5] = biological target: T2, hMAO-B; test: Reversibility analysis of hMAO-B inhibition by dialysis; assay type: biochemical; set-up: purchased Sigma-Aldrich (St. Louis, MO, USA); settings: for Reversibility of hMAO-B inhibition: dialysis; for Relative activity of hMAO-B, undialyzed (AU) / Relative activity of hMAO-B, dialyzed (AD): preincubation 30 min at ~2 × IC50 (B10 0.134, B15 0.240, lazabemide 0.220, pargyline 0.280 μM); for Relative activity of hMAO-B, dialyzed (AD): after dialysis
[6] = set-up: method as in PMID 26587996; settings: cited from earlier work

Row | SMILES | remaining activity at 10 µM (hMAO-A) [%] | IC50 (hMAO-A) [µM] | IC50 (hMAO-B [1]) [µM] | SI (selectivity index for hMAO-B as compared with hMAO-A) (hMAO-B [1]) | remaining activity at 10 µM (hMAO-B [1]) [%] | SI (selectivity index for hMAO-B as compared with hMAO-A) (hMAO-B [2]) | Pe value [3] | Prediction (CNS permeation) [3] | Papp [3] [×10⁻⁶ cm/s] | Type of hMAO-B inhibition (hMAO-B [4]) | Ki (hMAO-B [4]) [µM] | Reversibility of hMAO-B inhibition (hMAO-B [5]) | Relative activity of hMAO-B, undialyzed (AU) (hMAO-B [5]) [%] | Relative activity of hMAO-B, dialyzed (AD) (hMAO-B [5]) [%] | bioavailability [6]
1 | O=C(/C=C/c1ccccc1OCc1ccccc1)c1ccc2c(c1)OCO2 [Compound B1] | 82.6 ± 5.03 | 26.9 ± 4.16 | 1.44 ± 0.149 | 18.677 | 35.5 ± 6.05 |  |  |  |  |  |  |  |  |  | 
2 | O=C(/C=C/c1ccc(OCc2ccccc2)cc1)c1ccc2c(c1)OCO2 [Compound B2] | 53.1 ± 1.58 | 13.7 ± 1.53 | 0.626 ± 0.296 |  | 23.6 ± 0.96 | 21.933 |  |  |  |  |  |  |  |  | 
3 | O=C(/C=C/c1ccc(OCc2ccccc2)cc1)c1ccc2c(c1)OCCO2 [Compound B3] | 58.3 ± 0.84 | 14.3 ± 0.203 | 0.261 ± 0.016 | 54.663 | 0 |  |  |  |  |  |  |  |  |  | 
4 | CS(=O)(=O)c1ccc(C(=O)/C=C/c2ccccc2OCc2ccccc2)cc1 [Compound B4] | 78.2 ± 4.32 | 29.4 ± 2.71 | 0.233 ± 0.11 | 125.915 | 16.2 ± 6.49 |  |  |  |  |  |  |  |  |  | 
5 | CS(=O)(=O)c1ccc(C(=O)/C=C/c2ccc(OCc3ccccc3)cc2)cc1 [Compound B5] | 89.2 ± 4.47 | > 40 | 0.224 ± 0.082 | > 178.651 | 0 |  |  |  |  |  |  |  |  |  | 
6 | CSc1ccc(C(=O)/C=C/c2ccccc2OCc2ccccc2)cc1 [Compound B6] | 92 ± 2.93 | > 40 | 6.55 ± 1.34 | > 6.107 | 41.3 ± 4.9 |  |  |  |  |  |  |  |  |  | 
7 | CSc1ccc(C(=O)/C=C/c2ccc(OCc3ccccc3)cc2)cc1 [Compound B7] | 58.4 ± 4.48 | 12.6 ± 0.898 | 0.149 ± 0.006 | 84.544 | 0 |  |  |  |  |  |  |  |  |  | 
8 | O=C(/C=C/c1ccccc1OCc1ccccc1)c1ccc(Br)s1 [Compound B8] | 92.45 ± 0.49 | > 40 | 17.9 ± 0.268 | > 2.237 | 64.4 ± 1.5 |  |  |  |  |  |  |  |  |  | 
9 | O=C(/C=C/c1ccc(OCc2ccccc2)cc1)c1ccc(Br)s1 [Compound B9] | 69.1 ± 1.54 | 24 ± 1.44 | 0.236 ± 0.017 | 101.551 | 0 |  |  |  |  |  |  |  |  |  | 
10 | O=C(/C=C/c1ccc(OCc2ccccc2)cc1)c1cccs1 [Compound B10] | 76.7 ± 3.22 | 33.8 ± 6.89 | 0.067 ± 0.005 | 504.791 | 0 |  | higher than 4.0 × 10^–6 cm/s | CNS + (Pe (10^−6 cm/s) > 4.00: CNS + (high permeation)) | 4.93 ± 0.13 | competitive inhibitors of hMAO-B | 0.03 ± 0.001 | reversible inhibitors of hMAO-B | 44.29 | 77.53 | 
11 | O=C(/C=C/c1ccccc1OCc1ccccc1)c1cccs1 [Compound B11] | 81.3 ± 2.92 | > 40 | 5.78 ± 2.39 | > 6.915 | 41.2 ± 0.12 |  |  |  |  |  |  |  |  |  | 
12 | O=C(/C=C/c1ccccc1OCc1ccccc1)c1ccc(C(F)(F)F)cc1 [Compound B12] | 86.7 ± 2.68 | > 40 | 37.6 ± 1.88 | > 1.065 | 75.4 ± 3.6 |  |  |  |  |  |  |  |  |  | 
13 | O=C(/C=C/c1ccc(OCc2ccccc2)cc1)c1ccc(C(F)(F)F)cc1 [Compound B13] | 99.1 ± 1.24 | > 40 | 0.255 ± 0.016 | > 156.617 | 1.39 ± 3.27 |  |  |  |  |  |  |  |  |  | 
14 | CCOc1ccc(C(=O)/C=C/c2ccccc2OCc2ccccc2)cc1 [Compound B14] | 91.2 ± 6.2 | > 40 | 11.3 ± 0.331 | > 3.525 | 51.9 ± 1.31 |  |  |  |  |  |  |  |  |  | 
15 | CCOc1ccc(C(=O)/C=C/c2ccc(OCc3ccccc3)cc2)cc1 [Compound B15] | 75.9 ± 3.1 | 34.5 ± 3.54 | 0.12 ± 0.01 | 287.600 | 0 |  | higher than 4.0 × 10^–6 cm/s | CNS + (Pe (10^−6 cm/s) > 4.00: CNS + (high permeation)) | 4.09 ± 0.24 | competitive inhibitors of hMAO-B | 0.033 ± 0.001 | reversible inhibitors of hMAO-B | 41.68 | 78.78 | 
16 | C[C@H](NCc1ccc(OCc2cccc(F)c2)cc1)C(N)=O [Safinamide] |  |  |  |  |  |  |  |  |  |  |  |  |  |  | about 95%
17 | C#CCN(C)[C@H](C)Cc1ccccc1 [Selegiline, reference compound] |  |  |  |  |  |  |  | CNS + (Pe (10^−6 cm/s) > 4.00: CNS + (high permeation)) |  |  |  |  |  |  | 
